Numbers after ± are expanded uncertainties.
Tests used:
[1] = wn = mass fraction of the nth substance listed; settings: 298.15 K, 101 kPa, Liquid; for viscosity: Capillary tube (Ostwald / Ubbelohde) method; for speed of sound: Linear variable-path acoustic interferometer; for mass density: Vibrating tube method
[2] = refractive index (Na D-line) (dimensionless); wn = mass fraction of the nth substance listed; settings: 298.15 K, 101 kPa, Liquid, Standard Abbe refractometry

[Ba+2].[Cl-].[Cl-] [barium chloride] + O
Settings	mass density, [1] [kg/m3]	refractive index, [2]	speed of sound, [1] [m/s]	viscosity, [1] [mPa·s]
w1 = 0.01	997.56 ± 0.04	1.333 ± 0.0008	1516.7 ± 1.6	0.909 ± 0.008
w1 = 0.03	998.66 ± 0.04	1.3337 ± 0.0008	1521.4 ± 1.6	0.915 ± 0.008
w1 = 0.05	999.74 ± 0.05	1.3345 ± 0.0008	1525.3 ± 1.6	0.921 ± 0.008

Reference: the NIST ThermoML archive (doi:10.1021/je400077c)
